Results from patent publication US20240182407A1, “QUINOLINE COMPOUND SALT OR CRYSTAL FORM, PREPARATION METHOD THEREFOR, AND APPLICATION THEREOF” (Nanjing Zenshine Pharmaceuticals Co., Ltd., priority 2021, published 2024).
≈ marks a conversion by molar mass, not a printed value. Where “and” joins values, the source holds several entries; their conditions need not be identical. Identical values can stand only once. One block for each compound: values may come before it.

Tests used:
[1] = test system: human-derived lymphoma DoHH-2 cell line; test: Human-derived lymphoma DoHH-2 subcutaneous xenograft in CB17/SCID female immunodeficient mice; type: in vivo, mouse; conditions: 50 mg/kg p.o. BID, Day 24
Method: In Example 8, the anti-tumor effects of p-toluenesulfonate of Compound A at various dosages by intragastric administration on human-derived lymphoma DoHH-2 cell line subcutaneous transplantation CB17/SCID female immunodeficient mouse model were evaluated.
7-9-week-old CB17/SCID female immunodeficient mice were subcutaneously inoculated with […] DoHH-2 cells to establish a subcutaneous human lymphoma xenograft tumor model. When the average tumor volume in the mice reached 68 mm^3, the mice were randomly divided into groups and dosed on the day of grouping. The treatment method for each treatment group and vehicle control group was as follows:
p-toluenesulfonate of Compound A (Sample 6), given 100 mg/kg (p.o. QD) group, once daily, for 25 days (days 0-24);
p-toluenesulfonate of Compound A (Sample 6), given 30 mg/kg (p.o. QD) group, once daily, for 25 days (days 0-24);
positive treatment group (Duvelisib, purchased from Shanghai Lollane biological technology Co., Ltd.), given 50 mg/kg (p.o. BID) twice daily with an interval of 12 h, for 24 days; and
vehicle control group (5% DMSO/40% PEG400/55% water, by volume) (p.o. QD), given once daily, for 25 days (days 0-24).
There were 10 mice in each group, and all the mice were administered starting on the day of grouping (Day 0) and euthanized on Day 24 after grouping (Day 24). The efficacy was evaluated according to the tumor volume at the end point of the experiment.
The abbreviation p.o. stood for oral gavage, QD stood for once daily, and BID stood for twice daily.
The relative tumor inhibition rate (TGI) was calculated by the following formula: […]
T and C were respectively the average tumor volumes in the experimental group and the vehicle control group at a specific time point.

[2] = Solid stability, 40° C./75% RH and 60° C., one week (HPLC purity, XRPD); type: physicochemical; conditions: solid
Method: Appropriate amounts of Compound A and p-toluenesulfonate of Compound A (Sample 5, crystal form I) were respectively placed in 40° C./75% RH and 60° C. environments for one week to determine solid stability. At days 0 and 7, HPLC purity analysis and solid XRPD determination were carried out, and some of the results were as shown in Table 7.

[3] = Solubility in simulated gastrointestinal fluids (SGF, FeSSIF, FaSSIF) at 37° C.; type: physicochemical; conditions: for Solubility: 37° C.
Method: The solubilities of Compound A and p-toluenesulfonate (Sample 5, crystal form I) in simulated gastrointestinal fluids (SGF, FeSSIF and FaSSIF) at 37° C. were tested.
About 7.5 mg of Compound A and p-toluenesulfonate were separately added to 1.5 mL of three biological vehicles to prepare suspensions. All the suspensions were placed in a shaker at 37° C. and shaken at 200 rpm for 24 h, and about 0.5 mL was sampled separately at 0.5 h, 2 h and 24 h for filtration. The obtained filtrates were subjected to HPLC analysis and pH measurement, and the filter cakes were respectively measured by XRPD.

Structure (SMILES): C[C@H](Nc1ncnc2nc[nH]c12)c1cc2cccc(Cl)c2c(=O)n1-c1ccccc1 [Duvelisib, reference compound]
average tumor volume [1]: 1496.12 mm^3 | relative tumor inhibition rate (TGI) [1]: 30%

Purity (peak area %) Average - 40° C./75% RH - 7 d ([2]; 40° C./75% RH, 7 d, average): 98.49 peak area % | Purity (peak area %) 40° C./75% RH - 7 d ([2]; 40° C./75% RH, 7 d, single determinations): 98.52 peak area % and 98.45 peak area % | Purity (peak area %) Average - 60° C. - 7 d ([2]; 60° C., 7 d, average): 98.43 peak area % | Purity (peak area %) 60° C. - 7 d ([2]; 60° C., 7 d, single determinations): 98.37 peak area % and 98.50 peak area % | decrease of chemical purity ([2]; 60° C., 7 days): about 0.16% | Purity (peak area %) Average - 0 d ([2]; day 0, average): 98.59 peak area % | Purity (peak area %) 0 d ([2]; day 0, single determinations): 98.63 peak area % and 98.55 peak area % | pH of filtrate ([3]; FaSSIF (pH 6.52), 0.5 h): 6.55 | pH of filtrate ([3]; FaSSIF (pH 6.52), 2 h): 6.51 | pH of filtrate ([3]; FaSSIF (pH 6.52), 24 h): 6.34 | solubility at 30 min ([3]; FaSSIF, 37 °C, pH 6.52, fassif, thermodynamic from solid, FaSSIF (pH 6.52), 30 min): 370 µg/mL (≈ 924 µM) | solubility at 2 h ([3]; FaSSIF, 37 °C, pH 6.52, fassif, thermodynamic from solid, FaSSIF (pH 6.52), 2 h): 320 µg/mL (≈ 799 µM) | solubility at 24 h ([3]; FaSSIF, 37 °C, pH 6.52, fassif, thermodynamic from solid, FaSSIF (pH 6.52), 24 h): 350 µg/mL (≈ 874 µM) | Solubility ([3]; FeSSIF (pH 4.99), 30 min): 2060 µg/mL (≈ 5140 µM) | Solubility ([3]; FeSSIF (pH 4.99), 2 h): 1890 µg/mL (≈ 4720 µM) | Solubility ([3]; FeSSIF (pH 4.99), 24 h): 2200 µg/mL (≈ 5490 µM) | pH of filtrate ([3]; FeSSIF (pH 4.99), 0.5 h): 5.00 | pH of filtrate ([3]; FeSSIF (pH 4.99), 2 h): 4.94 | pH of filtrate ([3]; FeSSIF (pH 4.99), 24 h): 4.86 | Solubility ([3]; SGF (pH 1.21), 30 min): >4920 µg/mL | Solubility ([3]; SGF (pH 1.21), 2 h): >4910 µg/mL | Solubility ([3]; SGF (pH 1.21), 24 h): >4830 µg/mL | pH of filtrate ([3]; SGF (pH 1.21), 0.5 h): 1.19 | pH of filtrate ([3]; SGF (pH 1.21), 2 h): 1.16 | pH of filtrate ([3]; SGF (pH 1.21), 24 h): 1.18
Structure (SMILES): C[C@H](Nc1nc(N)nc(N)c1C#N)c1cc2ccc(F)cc2nc1-c1ccccn1 [Compound A]
